Laboratory results published in patent US12077508B2, “Inhibitors of the Notch transcriptional activation complex kinase (“NACK”) and methods for use of the same” (UNIVERSITY OF MIAMI, priority 2018, dated 2024).
Entries after “also recorded” stand apart in the source; their conditions may differ. Read-outs that look alike come from different tables or passages of the source.

Legend:
NACK = molecular target: T1, NACK (Mus musculus, UniProt Q571I4); assay: Surface plasmon resonance (SPR) binding to GST tagged NACK
T1 sequence (Q571I4 1-1373): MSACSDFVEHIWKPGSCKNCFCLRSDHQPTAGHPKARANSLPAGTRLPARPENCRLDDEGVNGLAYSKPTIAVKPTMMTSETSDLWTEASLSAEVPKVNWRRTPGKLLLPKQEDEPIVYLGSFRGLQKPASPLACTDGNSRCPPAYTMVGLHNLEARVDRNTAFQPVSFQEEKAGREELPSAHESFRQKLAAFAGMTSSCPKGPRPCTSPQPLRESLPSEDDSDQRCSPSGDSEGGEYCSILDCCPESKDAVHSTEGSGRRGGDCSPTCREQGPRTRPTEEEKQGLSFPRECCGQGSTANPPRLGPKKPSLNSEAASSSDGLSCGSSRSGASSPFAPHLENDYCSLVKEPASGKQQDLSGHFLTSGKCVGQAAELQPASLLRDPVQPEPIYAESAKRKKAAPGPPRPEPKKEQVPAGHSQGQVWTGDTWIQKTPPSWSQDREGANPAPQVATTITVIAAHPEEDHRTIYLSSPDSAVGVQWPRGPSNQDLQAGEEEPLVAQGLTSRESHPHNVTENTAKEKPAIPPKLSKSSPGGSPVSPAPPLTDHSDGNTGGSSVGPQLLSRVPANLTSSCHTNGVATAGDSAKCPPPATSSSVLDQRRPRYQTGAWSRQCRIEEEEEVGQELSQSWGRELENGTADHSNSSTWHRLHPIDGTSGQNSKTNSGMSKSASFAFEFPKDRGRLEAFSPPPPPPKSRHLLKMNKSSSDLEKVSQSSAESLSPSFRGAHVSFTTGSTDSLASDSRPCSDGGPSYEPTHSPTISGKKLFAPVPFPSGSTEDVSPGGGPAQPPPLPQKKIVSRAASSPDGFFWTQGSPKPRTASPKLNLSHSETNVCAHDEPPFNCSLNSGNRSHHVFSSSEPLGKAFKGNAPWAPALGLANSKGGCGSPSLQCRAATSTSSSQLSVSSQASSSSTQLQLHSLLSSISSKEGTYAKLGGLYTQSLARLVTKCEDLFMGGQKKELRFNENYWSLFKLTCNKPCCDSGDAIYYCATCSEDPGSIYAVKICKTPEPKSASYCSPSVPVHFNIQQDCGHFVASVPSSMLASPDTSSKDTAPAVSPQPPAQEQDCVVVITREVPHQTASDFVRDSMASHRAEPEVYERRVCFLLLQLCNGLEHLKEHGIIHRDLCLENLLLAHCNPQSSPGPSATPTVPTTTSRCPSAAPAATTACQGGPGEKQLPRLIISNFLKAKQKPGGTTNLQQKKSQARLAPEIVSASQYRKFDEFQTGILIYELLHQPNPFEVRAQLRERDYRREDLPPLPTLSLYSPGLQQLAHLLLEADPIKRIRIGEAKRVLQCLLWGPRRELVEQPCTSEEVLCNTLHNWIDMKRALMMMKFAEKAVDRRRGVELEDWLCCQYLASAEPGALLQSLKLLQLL
Experimental: The interaction between inhibitor Z271-0326 and target NACK was characterized using surface plasmon resonance (SPR). For this purpose, GST tagged NACK was captured by a GST antibody that was previously immobilized onto the surface of the chip through standard amide coupling. The dissociation constants associated with binding of the compounds to NACK was determined using the equilibrium approach, which consists of plotting the equilibrium response (Req) as a function of concentration of the compound and fitting the data to a 1:1 binding model.
A GST capture kit (GE Healthcare) were utilized to covalently immobilize an anti-GST antibody, provided in the kit, to the sensor chip surface (CM5 chip, GE Healthcare) by following the manufacturer's instructions. Capture were performed by injecting GST-NACK (1 μg/μL) over the immobilized anti-GST antibody in Hepes buffer (10 mM Hepes, pH 7.5, 150 mM NaCl, 3 mM EDTA, 0.0005% NP-40) for 7 min at 10 μL/min. A reference flow cell was prepared by capturing GST following the procedure described above. […] Experiments were performed on a Biacore T200 instrument (GE Healthcare) at 25° C. Small molecule inhibitors binding to NACK were performed in 50 mM Tris buffer, pH 7.5, containing 150 mM NaCl, 10 mM MgCl2 and 5% DMSO (running buffer). The SPR signal arising from the sample was corrected for its respective control containing DMSO. Data visualization and analysis was performed using Biacore T200 software (GE Healthcare) and Origin 8.0 (OriginLab).

OE33 cell line = assay: Colony formation assay in OE33 cells; format: cell-based, human; details: for OE33 colony formation: cells treated every other day, FIGS. 5B, 5C
Experimental: (§1) A cell based colony formation assay was used in these experiments. Normal mouse mammary epithelia HC11 cells have little or no endogenous NACK expression, and NACK knockdown had no effect on the growth of HC11 cells (FIG. 5A, lower panel). […] Knockdown of NACK was confirmed by western blot and qPCR (FIGS. 1D and 1E). […] Therefore, compounds that affect OE33 colony formation but not HC11 were desired. In order to screen the compounds, cells were treated with test compounds every other day.
(§2) Colony formation assay was utilized to determine the effect of small molecule inhibitors on cell proliferation. In general, different cell lines (NACK dependent or independent) will be seeded in 6-well plates at a density of 2000 cells per well and allowed to attach overnight. Inhibitor treatment commenced 24 hours post seeding, and the media containing inhibitor was changed every 48 hours thereafter. After 168 hours, colonies were be stained with Crystal Violet (Millipore) and counted.

[1] = molecular target: T2, NACK binding to the Notch transcription complex (Mus musculus, UniProt Q571I4); assay: CSL-DNA affinity precipitation (CSL-DAP) assay; format: cell-based; details: 293T cells transfected with N1ICD, Maml1, NACK; 2 hours treatment; FIG. 6A
T2 construct: expressed in transfected cells; host or cells: 293T
T2 sequence (Q571I4 1-1373): T1 sequence (Q571I4 1-1373)
Experimental: To determine the specificity of hit-to-lead compounds targeting NACK activity, it was evaluated whether iNACK can block NACK binding to the Notch complex by conducting CSL-DNA affinity precipitation (CSL-DAP) assay. […] In the CSL-DAP assay, 293T cells were co-transfected with N1^ICD, Maml1 and NACK. Transfections were performed using LipoJet transfection reagent (SL100468, SignaGen Laboratories) according to the manufacturer recommended protocol. After two days of transfection, cells were treated with compounds for 2 hours prior collecting the cell lysate. Cell lysates were incubated with DNA streptavidin beads. Proteins that bound to the beads were analyzed by Western blot.
Western blot was performed as described previously (See Weaver et al., Cancer Research 74, 4741-4751 (2014)). Primary antibodies were α-NACK (1:1,000; against aa209-287 of NACK and affinity purified), α-CSL (1:1,000; generated against full-length CSL and affinity purified), α-Maml1 (1:5,000; Cell Signaling Technology), α-cleaved-Notch1 (1:1,000; Cell Signaling Technology).

Notch target genes = assay: RT-qPCR of Notch target genes in Notch/NACK-dependent cells; format: cell-based, human; details: OE33; FIG. 6B
Experimental: To assess the effect of NACK inhibitor on Notch target gene transcription, Notch/NACK-dependent cell lines were treated with NACK inhibitors. The cells were also treated with DAPT as a positive control. DMSO treated cells served as a vehicle control for comparison. Gene expression was normalized to HPRT, and TBP served as a negative control to validate normalization.
Reverse transcription and qPCR analysis were performed as described previously (See Weaver et al., Cancer Research 74, 4741-4751 (2014)). Gene expression was normalized to the TATA-binding protein (“TBP”) gene. As a control, hypoxanthine phosphoribosyltransferase 1 (“HPRT”) gene expression was also monitored.

HC11 cells = assay: Colony formation assay in HC11 cells; format: cell-based, mouse; details: Notch/NACK independent cell line; FIG. 5B
Experimental: as §1, §2

OE33 spheres = assay: Tumor sphere formation assay in OE33; format: cell-based, human; details: OE33; FIG. 7A
Experimental: In order to assess the effect of hit to lead compounds on the proliferation of stem cell like population of Notch/NACK dependent cells, the primary tumor spheres were treated with NACK inhibitor and allow the cells to be propagated as secondary cultures. To obtain tumor spheres, cells were cultured in DMEM/F12 with 2% B-27 serum-free supplement (17604-044; Invitrogen), 20 ng/mL epidermal growth factor (EGF; PHG0311L; Invitrogen), and 20 ng/mL basic fibroblastic growth factor (bFGF; PHG0266; Invitrogen) for 14 days. Resulting tumor spheres were examined and counted under the microscope. Furthermore, the tumor spheres were collected for further RT-qPCR analysis to test the effect of hit to lead compounds on the stem like target genes.

OE33 cells = assay: Cell apoptosis assay (Annexin V/PI flow cytometry); format: cell-based, human; details: day 7 of treatment, FIG. 9A
Experimental: To investigate how Z271-0326 inhibits cell growth in EAC cell lines, the effect of Z271-0326 treatment was evaluated on apoptosis. OE33 was treated either with the GSI DAPT or Z271-0326 every other day, and their effects on apoptosis were analyzed. On day 7 of treatment, cell apoptosis was analyzed using FITC Annexin V/Dead Cell Apoptosis Kit with FIFC annexin V and PI for flow cytometry (Invitrogen, V13242).

HES1 promoter = assay: Chromatin immunoprecipitation (ChIP) at the HES1 promoter in OE33; format: cell-based, human; details: 24 hours, FIG. 8C
Experimental: Notch/NACK-dependent cells were treated with either DAPT as a positive control, DMSO (vehicle) as a negative control, or compounds for screening for 24 hours. After treatment, cells were cross-linked and sonicated to yield chromatin fragments of approximately 500 bp, as previously described (See Weaver et al., Cancer Research 74, 4741-4751 (2014)). Lysates were immunoprecipitated with either α-Notch1 (Bethyl Laboratories, Montgomery, TX; A301-894A), α-Maml1 (Cell Signaling, 12166s), α-NACK (Bethyl Laboratories, A302-675A), or α-PoIII pSer5 (Abcam, ab5131) antibodies. DNA immunoprecipitates were cleaned using the PCR purification Kit (Qiagen). DNA were detected by Syber green qPCR using HES1 specific oligonucleotide primers (forward: 5′CGTGTCTCCTCCTCCCATT3′ (SEQ ID NO: 2); reverse: 5′GGGGGATTCCGCTGTTAT3′ (SEQ ID NO:3)).

Nc1ncnc2c1ncn2[C@@H]1O[C@H](COP(=O)(O)OP(=O)(O)NP(=O)(O)O)[C@@H](O)[C@H]1O [AMP-PNP]
Kd (NACK; SPR, FIG. 4C, read-out: binding constant): ~1500 nM
Kd (NACK; equilibrium approach, 1:1 binding model, 25° C., FIG. 10A, read-out: KD): 1500 ± 500 nM

O=C(c1cnn2ccc(C3CCN(S(=O)(=O)Cc4ccccc4)CC3)cc12)N1CCCCC1 [Compound Z271-0132]
selectivity between OE33 and HC11 cell lines (OE33 cell line; colony formation): displays no selectivity between OE33 and HC11 cell lines
inhibition of NACK binding to the Notch transcription complex [1]: dramatically inhibit NACK binding to the NOTCH transcription complex; also recorded: blocks binding of NACK to the ternary complex

CC1CCN(C(=O)c2cnn3ccc(C4CCN(S(=O)(=O)c5ccccc5)CC4)cc23)CC1 [Compound Z271-0191]
mRNA levels of Notch target genes Hes1 and Notch3 (Notch target genes): decrease the mRNA levels of Notch target genes Hes1 and Notch3
EC50 (OE33 cell line; Homo sapiens, OE33, estimated, FIG. 6C, read-out: EC50 colony formation titration assay): 3740 nM
OE33 colony formation (OE33 cell line): effectively inhibit OE33 colony formation
HC11 colony formation / viability (HC11 cells): but not HC11 cell
secondary sphere formation (OE33 spheres): less effective compared to Z271-0326
inhibition of NACK binding to the Notch transcription complex [1]: dramatically inhibit NACK binding to the NOTCH transcription complex

C[C@H](NC(=O)Cc1cc(F)cc(F)c1)C(=O)N[C@H](C(=O)OC(C)(C)C)c1ccccc1 [DAPT, reference compound]
OE33 colony formation (OE33 cell line): reduction in the colony formation
HC11 colony formation / viability (HC11 cells): did not alter the viability of HC11 cells; also recorded: insensitive
increase in the percent of cells undergoing apoptosis compared to the control (OE33 cells): twofold
binding of N1ICD and NACK to the HES1 promoter (HES1 promoter): abrogated the binding of N1ICD and NACK to the HES1 promoter
